Assay results from patent publication US12558329B2 (New York University, priority 2021, dated 2026).
Entries after “also recorded” stand apart in the source; their conditions may differ.

Legend:
HPDL [1] = target: T1, HPDL (Homo sapiens, UniProt Q96IR7); experiment: HPDL enzymatic assay with immunopurified HPDL-FLAG; format: biochemical; conditions: 400 μM substrate, 37° C., 21% 16O2, 1 hour
T1 construct: made in house; host or cells: MIAPACA2 sgHPDL #3 (HPDL-knockout) cells stably infected with the pLenti6.2 lentiviral vector; anti-FLAG M2 magnetic bead immunoprecipitation
T1 sequence (Q96IR7 1-371): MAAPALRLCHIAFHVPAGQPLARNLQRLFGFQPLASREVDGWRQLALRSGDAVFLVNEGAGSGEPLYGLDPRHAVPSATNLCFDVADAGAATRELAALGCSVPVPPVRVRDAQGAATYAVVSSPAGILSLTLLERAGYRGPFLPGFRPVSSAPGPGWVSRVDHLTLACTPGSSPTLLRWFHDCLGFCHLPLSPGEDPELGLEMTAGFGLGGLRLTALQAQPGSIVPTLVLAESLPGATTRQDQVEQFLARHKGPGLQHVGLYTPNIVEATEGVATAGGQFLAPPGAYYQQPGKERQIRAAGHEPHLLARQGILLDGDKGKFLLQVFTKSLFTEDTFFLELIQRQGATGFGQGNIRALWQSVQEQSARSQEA
Experimental: Homogentisate, the product of HPD, was not produced in any of the present enzymatic assays. […] This directly confirmed that HPDL activity, and not a potential HPDL-interacting enzyme, was needed for 4-HMA synthesis.
For the HPDL enzymatic assay, cell lysates were generated in TNE lysis buffer (50 mM Tris-HCl pH 8.0, 150 mM NaCl, 2 mM EDTA, and 1% NP-40, supplemented with protease (ThermoFisher Scientific) and phosphatase (10 mM NaF, 10 mM β-glycerophosphate, and 10 mM sodium pyrophosphate) inhibitors. HPDL-FLAG was immunoprecipitated using anti-FLAG M2 magnetic beads (Millipore Sigma, M8823). Cell lysates were incubated with anti-FLAG M2 magnetic beads for 1 hour at 4° C. on a rotating platform. Beads were washed four times with TNE lysis buffer, and then 10% and 90% of the immunopurified protein was used for immunoblotting or enzymatic assay, respectively. […] At the end of the assay, 10 uL of assay buffer was retrieved and prepared for analysis by gas chromatography-mass spectrometry (GC-MS, see Metabolomics section).

MIAPACA2 cells [2] = experiment: Pulse-chase study with tyrosine-derived intermediates after two weeks of 13C9-Tyr labelling; format: cell-based, human; conditions: for increase of the fraction of unlabelled (non-labelled) CoQ10: unlabelled intermediate added in the presence of 13C9-Tyr, 21% O2; for effect on intracellular levels of the other Tyr-derived metabolites: exogenous unlabelled metabolite
Experimental: Using the same experimental scheme, the incorporation of Tyr-derived metabolites into CoQ10 was measured. […] For metabolomics, briefly, cells were washed in 4° C. 0.9% saline and metabolites were extracted with 46% methanol:23% H2O:[…] chloroform that contained a labelled amino acid standard mix (MSK-A2-1.2, Cambridge Isotope Laboratories, Inc.). Enzymatic assay samples were extracted using 80% methanol: 20% H2O that contained labelled amino acid standards. Extracts were placed into 1.5 mL Eppendorf tubes, vortexed at 4° C. for 10 min and centrifuged at 4° C. for 10 min at 17,200×g in a microcentrifuge. The aqueous phase was transferred to vials for GC-MS or Eppendorf tubes for LC-MS. Polar samples were evaporated in a […] and samples were resolved by GC-MS or LC-MS. Lipid samples were dried using a stream of N2 (for ^18O labelling studies) or air. Metabolite and lipid extracts were submitted to the […] Metabolomics Core Resource Laboratory. For polar metabolomics, the LC column was a Millipore ZIC-pHILIC (2.1×150 […], 5 μm bead size) coupled to a Dionex […] 3000 system. The column oven temperature was held at 25° C. The flow rate was 100 μL/min, and the injection volume was 1 μL. Buffer A was 10 mM ammonium carbonate in water, pH 9, and Buffer B was neat acetonitrile. The gradient profile was 80-20% B (0-30 min), 20-80% B (30-31 min), and 80-80% B (31-42 min). MS Analyses were carried out on a Thermo Q Exactive HF mass spectrometer using a heated electrospray ionization (HESI) source. The method duration was 30 min using a polarity-switching, top 5 method. The spray voltage for both positive and negative ion modes was 3.5 kV. The capillary temperature was 320° C. with a maximum spray current of 100 ρA. The full MS scan was carried out at 120,000 resolution with a scan range of 67-1000 m/z. For ^18O2 labelling experiments, full MS scans were carried out at 240,000 resolution at the same scan range. Tandem MS spectra were obtained at 15,000 resolution. All data were acquired in profile mode. Peak heights were analyzed using Xcalibur (ThermoFisher Scientific). Lipid metabolomics were acquired using a Waters CSH-C18 (2.1×100 mm, 1.7 μm) column coupled to a Dionex […] 3000 system. The column oven temperature was held at 55° C. The flow rate was 300 μL/min and the injection volume was 1 μL. Buffer A was 60:40 acetonitrile:water, 0.1% formic acid and Buffer B was 90:10 isopropanol:acetonitrile, 10 mM ammonium formate. The gradient profile was 40-43% B (0-1.25 min), 43-50% B (1.25-2 min), 50-54% B (2-11 min), 54-70% B (11-12 min), 70-99% B (12-18 min), […], 99-40% B (23-24 min), hold at 40% B (1 min). MS Analyses were carried out on a Thermo Q Exactive HF mass spectrometer using a heated electrospray ionization (HESI) source. The method duration was 20 minutes using a polarity-switching, top 10 method. The spray voltage for both positive and negative ion modes was 3.5 kV. The capillary temperature was 320° C. with a maximum spray current of 100 ρA. The full MS scan was carried out at 120,000 resolution with a scan range of 350-2000 m/z. For ^18O2 labelling experiments, full MS scan was carried out at 240,000 resolution at the same scan range. Tandem MS spectra were obtained at 15,000 resolution. All data were acquired in profile mode. Peak heights were analyzed using Xcalibur (ThermoFisher Scientific).

human cells = experiment: 18O2-GASSP labelling of human cells, untargeted polar metabolomics, with or without IOX1; format: cell-based; conditions: 18O labelling of the metabolite in cells treated with IOX1 (dioxygenase inhibitor), 24 hours
Experimental: To map the molecular fate of O2 in metabolic pathways in living cells, GASSP was used to carry out ^18O2 labelling in cell lines of different tissue origins at ^18O2 concentrations that represented physiological (3%), hypoxic (1%), and severely hypoxic (0.2%) oxygen tensions found in tissues and tumours^7. At the end of each run, polar metabolites were extracted and untargeted polar metabolomics using liquid chromatography-high resolution mass spectrometry (LC-MS) were carried out to identify metabolites labeled with ^18O.
A list of unique features identified by untargeted metabolomics that were >0.25% (natural abundance of ^18O is 0.2%) labelled by ^18O atoms in each cell line at each oxygen tension was generated. In addition, background signal was controlled by requiring that ^18O labeled peaks had to have a signal that was two-fold greater than naturally occurring isotopes found in non-labelled (^16O) metabolite cell extracts. To determine the proportion of unique ^18O labelled features that were due to dioxygenase activity, cells were treated with a pan-dioxygenase inhibitor (IOX1) at concentrations that inhibit iron-dependent dioxygenases, such as the HIF1α prolyl hydroxylases (FIGS. 5E-5F) and identified ^18O labelled polar metabolites. This list of ^18O metabolites was generated by identifying all features in the unlabelled samples, filtering these features against blank samples to remove background peaks, and calculating the fractional ^18O labelling with the assumption that a metabolite would have no more than three oxygen atoms labelled, followed by manual curation of labelled features (FIG. 1B and FIG. 5G). […] These ^18O-labelled features were termed the oxy-metabolome.
To determine the identities of the labeled metabolites, the list of ^18O labelled features was annotated to their corresponding unlabelled metabolites using retention time matching, tandem mass spectrometry (MS2) fragmentation patterns, and database searching.
All steps involved in setting up labelling with ^18O2 were performed at room temperature and inside a chemical fume hood. The procedure may vary depending on the type and number of tissue culture plates in the chamber and the amount of media in the plates. Users must test the system by using ^16O2:CO2:N2 or other unlabelled gases to optimize conditions for their needs and avoid consumption of costly labelled gases. Cells were treated with or without 5 μM MG132, 500 μM IOX1, 250 μM DFO, or 70 μM ascorbate, before placing tissue culture plates into the modular incubator chamber (MIC) containing a wireless oxygen sensor and a 15 cm dish of water to maintain humidity. Next, the clamps were closed to form an air-tight seal between the lid and platform of the MIC. […] N2 flushing was repeated for a total of three times, or until the sensor in the chamber stabilized at 0% O2 for 10 minutes.

MIAPACA2 cells [3] = experiment: Oxygen consumption rate (OCR) in spheroids; format: cell-based, human; conditions: HPDL KO cells, 1 mM, 3D conditions
Experimental: For measurement of oxygen consumption in spheroids, oxygen consumption rate (OCR) was measured with an XF96 analyzer (Seahorse Bioscience) and the Seahorse XFe96 Spheroid FluxPak, as described by the manufacturer's protocol. Spheroids were generated by seeding 40,000 cells per well into a low-attachment U-bottom 96-well plate with DMEM+10% diaFBS and 5% Matrigel. If indicated, spheroids were treated with or without 1 mM 4-HMA or 4-HB for the duration of the assay. Spheroids were allowed to form for three days before measuring oxygen consumption measurement. Each spheroid was transferred to a Spheroid FluxPak plate containing DMEM (25 mM glucose, 4 mM glutamine, and without pyruvate, phenol red and bicarbonate), and allowed to equilibrate for 1 hr at 37° C., no CO2. OCR measurements were normalized to size of the spheroid.

HPDL [4] = experiment: HPDL levels in the cell after addition of HPDL products; format: cell-based
MIAPACA2 cells [5] = experiment: 3D growth assay; format: cell-based, human; conditions: HPDL KO cells, 1 mM, three days
Experimental: For the 3D growth assay, approximately 2,500 cells were seeded into a low-attachment 96-well plate containing DMEM+10% diaFBS and 5% Matrigel. Cells were grown for three days at 37° C. and 5% CO2. Cells were also treated or without 1 mM 4-HMA or 4-HB for the duration of the assay. To measure 3D growth with the CyQUANT Cell Proliferation Assay kit, plates were frozen at −80° C., thawed at room temperature, and equal volumes of 2× CyQUANT reagent+lysis buffer was added to the wells. As a control, wells containing media+5% Matrigel and no cells were used as blanks. CyQUANT measurements were performed as described in the manufacturer's instructions.

Row | SMILES | 4-HMA production by HPDL from the substrate (HPDL [1]) | increase of the fraction of unlabelled (non-labelled) CoQ10 (MIAPACA2 cells [2]; 24 hours) | IOX1 Sensitive (Yes/No) (human cells) | OCR (MIAPACA2 cells [3]) | incorporation into CoQ10 (MIAPACA2 cells [2]) | effect on 4-HB levels (MIAPACA2 cells [2]; exogenous metabolite, 24 hours) | effect on intracellular levels of the other Tyr-derived metabolites (MIAPACA2 cells [2]; 24 hours) | HPDL levels in the cell (HPDL [4]) | 3D growth (MIAPACA2 cells [5])
1 | O=C(O)C(=O)Cc1ccc(O)cc1 [Metabolite 4-HPPA, 4-hydroxyphenylpyruvate] | resulted in the generation of 4-HMA; also recorded: synthesized 4-HMA | 30% |  |  |  |  |  |  | 
2 | O=C(O)C(O)c1ccc(O)cc1 (racemic) [Metabolite 4-HMA, 2-hydroxy-2-(4-hydroxyphenyl)acetic acid] |  | 30% | Yes | increased | incorporated into CoQ10 | minimal effect | had no effect on Tyr, 4-HPPA and 4-HPLA levels | reduce | increased
3 | O=C(O)c1ccc(O)cc1 [Metabolite 4-HB, 4-hydroxybenzoic acid] |  | 30% |  | increased |  |  | did not change Tyr, 4-HPPA, 4-HPLA, and 4-HMA levels | reduce | increased
4 | N[C@@H](Cc1ccc(O)cc1)C(=O)O [Tyr, tyrosine] | not |  | Yes |  |  |  |  |  | 
